Test results: patent US20240109873A1, “ANTAGONISTS OF THE MUSCARINIC ACETYLCHOLINE RECEPTOR M4” (Vanderbilt University, priority 2020, published 2024)
pIC50: −log10 of the molar value.

Target: T1, human mAChR M4 (Homo sapiens, UniProt P08173)
T1 construct: expressed in transfected cells; host or cells: CHO-K1 (ATCC), co-transfected with chimeric G protein Gqi5
T1 sequence (P08173 1-479): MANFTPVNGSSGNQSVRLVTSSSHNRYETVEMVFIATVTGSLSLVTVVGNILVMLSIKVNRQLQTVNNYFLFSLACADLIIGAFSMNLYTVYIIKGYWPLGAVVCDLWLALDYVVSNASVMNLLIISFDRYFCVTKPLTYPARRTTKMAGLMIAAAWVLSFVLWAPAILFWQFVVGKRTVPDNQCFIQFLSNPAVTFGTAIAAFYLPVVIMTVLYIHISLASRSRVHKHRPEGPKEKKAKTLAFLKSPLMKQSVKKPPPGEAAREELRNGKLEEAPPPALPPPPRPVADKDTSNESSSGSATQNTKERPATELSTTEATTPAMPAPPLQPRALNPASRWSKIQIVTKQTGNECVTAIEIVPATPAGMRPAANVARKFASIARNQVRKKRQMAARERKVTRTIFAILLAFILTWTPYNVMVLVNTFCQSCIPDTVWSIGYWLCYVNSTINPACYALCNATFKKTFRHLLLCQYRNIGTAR
Assay: mAChR M4 cell-based functional assay (calcium flux, antagonism of EC80 acetylcholine response, M4/Gqi5/CHO-K1 cells)
Settings: for remaining activity at 30 µM: CHO-K1, % ACh maximum at 30 μM, read-out: Human M4 Emin; for pIC50: decrease of the response elicited by an EC80 concentration of acetylcholine, CHO-K1 cells, Gqi5
Procedure: Human or rat M4 cDNA, along with the chimeric G protein Gqi5, were transfected into Chinese hamster ovary (CHO-K1) cells purchased from the American Type Culture Collection using Lipofectamine2000. M4/Gqi5/CHO cells were grown in Ham's F-12 medium containing 10% heat-inactivated fetal bovine serum (FBS), 20 mM HEPES, 500 μg/mL G418 sulfate, and 200 μg/mL Hygromycin B.
For high throughput measurement of agonist-evoked increases in intracellular calcium, CHO-K1 cells stably expressing muscarinic receptors were plated in growth medium lacking G418 and hygromycin at 15,000 cells/20 μL/well in Greiner 384-well black-walled, tissue culture (TC)-treated, clear-bottom plates (VWR). Cells were incubated overnight at 37° C. and 5% CO2. The next day, cells were washed using an ELX 405 (BioTek) with assay buffer; the final volume was then aspirated to 20 μL. Next, 20 μL of a 2.3 μM stock of Fluo-4/acetoxymethyl ester (Invitrogen, Carlsbad, CA), prepared as a 2.3 mM stock in DMSO and mixed in a 1:1 ratio with 10% (w/v) Pluronic F-127 and diluted in assay buffer, was added to the wells and the cell plates were incubated for 50 min at 37° C. and 5% CO2. Dye was removed by washing with the ELX 405 and the final volume was aspirated to 20 μL. Compound master plates were formatted in a 10-point concentration-response curve (CRC) format (1:3 dilutions) in 100% DMSO with a starting concentration of 10 or 1 mM using a BRAVO liquid handler (Agilent). Test compound CRCs were then transferred to daughter plates (240 nL) using the Echo acoustic plate reformatter (Labcyte, Sunnyvale, CA) and then diluted into assay buffer (40 μL) to a 2× stock using a Thermo Fisher Combi (Thermo Fisher Scientific, Waltham, MA).
Calcium flux was measured using the Functional Drug Screening System (FDSS) 6000 or 7000 (Hamamatsu Corporation, Tokyo, Japan) as an increase in the fluorescent static ratio. Compounds were applied to cells (20 μL, 2×) using the automated system of the FDSS at 2 seconds into the protocol and the data were collected at 1 Hz. At 143 s, 10 μL of an EC20 concentration of the muscarinic receptor agonist acetylcholine was added (5×), followed by the addition of 12 μL of an EC80 concentration of acetylcholine at the 268 s time point (5×). Agonist activity was analyzed as a concentration-dependent increase in calcium mobilization upon compound addition. Positive allosteric modulator activity was analyzed as a concentration-dependent increase in the EC20 acetylcholine response. Antagonist activity was analyzed as a concentration-dependent decrease in the EC80 acetylcholine response; for the purposes of the tables herein, an IC50 (inhibitory concentration 50) was calculated as a concentration-dependent decrease of the response elicited by an EC80 concentration of acetylcholine. Concentration-response curves were generated using a four-parameter logistical equation in XLFit curve fitting software (IDBS, Bridgewater, NJ) for Excel (Microsoft, Redmond, WA) or Prism (GraphPad Software, Inc., San Diego, CA) or the Dotmatics software platform (Dotmatics, Bishop's Stortford, UK). […]
Compounds were synthesized as described above. Activity (IC50 and Emin) was determined in the mAChR M4 cell-based functional assay as described above and the data are shown in Table 2.

Row | Structure (SMILES) | remaining activity at 30 µM [%] | pIC50 | Human M4 Emin (% ACh maximum at 30 μM) [%]
1 | [2H]C([2H])(C1CCOCC1)N1C[C@H]2C[C@H](Nc3ccc(-c4cnc(C(F)(F)F)cc4C(F)(F)F)nn3)C[C@H]2C1 [Compound 17, (3aR,5s,6aS)-N-(6-(4,6-bis(trifluoromethyl)pyridin-3-yl)pyridazin-3-yl)-2-((tetrahydro-2H-pyran-4-yl)methyl-d2)octahydrocyclopenta[c]pyrrol-5-amine] | 26 | 8.55 | –
2 | [2H]C1([2H])CC(C([2H])([2H])N2C[C@H]3C[C@H](Nc4nnc(-c5cnccc5C(F)(F)F)cc4C)C[C@H]3C2)CC([2H])([2H])O1 [Compound 18, (3aR,5s,6aS)-N-(4-methyl-6-(4-(trifluoromethyl)pyridin-3-yl)pyridazin-3-yl)-2-((tetrahydro-2H-pyran-4-yl-2,2,6,6-d4)methyl-d2)octahydrocyclopenta[c]pyrrol-5-amine] | 4 | 8.96 | –
3 | [2H]C1([2H])CC(CN2C[C@H]3C[C@H](Nc4nnc(-c5cnccc5C(F)(F)F)cc4C)C[C@H]3C2)CC([2H])([2H])O1 [Compound 19, (3aR,5s,6aS)-N-(4-methyl-6-(4-(trifluoromethyl)pyridin-3-yl)pyridazin-3-yl)-2-((tetrahydro-2H-pyran-4-yl-2,2,6,6-d4)methyl)octahydrocyclopenta[c]pyrrol-5-amine] | 3 | 8.89 | –
4 | [2H]C([2H])(C1CCOCC1(C)C)N1C[C@H]2C[C@H](Nc3nnc(-c4cnccc4C(F)(F)F)cc3C)C[C@H]2C1 (stereo partly drawn) [Compound 20, (3aR,5s,6aS)-2-((3,3-dimethyltetrahydro-2H-pyran-4-yl)methyl-d2)-N-(4-methyl-6-(4-(trifluoromethyl)pyridin-3-yl)pyridazin-3-yl)octahydrocyclopenta[c]pyrrol-5-amine] | 2 | 8.19 | –
5 | [2H]C([2H])(C1CCOCC1(C)C)N1C[C@H]2C[C@H](Nc3nnc(-c4cnccc4C(F)(F)F)cc3OC)C[C@H]2C1 (stereo partly drawn) [Compound 21, (3aR,5s,6aS)-2-((3,3-dimethyltetrahydro-2H-pyran-4-yl)methyl-d2)-N-(4-methoxy-6-(4-(trifluoromethyl)pyridin-3-yl)pyridazin-3-yl)octahydrocyclopenta[c]pyrrol-5-amine] | 2 | 7.96 | –
6 | [2H]C1([2H])CC(C([2H])([2H])N2C[C@H]3C[C@H](Nc4nnc(-c5cnccc5C(F)(F)F)cc4OC)C[C@H]3C2)CC([2H])([2H])O1 [Compound 22, (3aR,5s,6aS)-N-(4-methoxy-6-(4-(trifluoromethyl)pyridin-3-yl)pyridazin-3-yl)-2-((tetrahydro-2H-pyran-4-yl-2,2,6,6-d4)methyl-d2)octahydrocyclopenta[c]pyrrol-5-amine] | 2 | 8.35 | –
7 | [2H]C1([2H])CC(CN2C[C@H]3C[C@H](Nc4nnc(-c5cnccc5C(F)(F)F)cc4OC)C[C@H]3C2)CC([2H])([2H])O1 [Compound 23, (3aR,5s,6aS)-N-(4-methoxy-6-(4-(trifluoromethyl)pyridin-3-yl)pyridazin-3-yl)-2-((tetrahydro-2H-pyran-4-yl-2,2,6,6-d4)methyl)octahydrocyclopenta[c]pyrrol-5-amine] | 2 | 8.41 | –
8 | [2H]C([2H])(C1CCOCC1)N1C[C@H]2C[C@H](Nc3nnc(-c4cnccc4C(F)(F)F)cc3C(F)F)C[C@H]2C1 [Compound 26, (3aR,5s,6aS)-N-(4-(difluoromethyl)-6-(4-(trifluoromethyl)pyridin-3-yl)pyridazin-3-yl)-2-((tetrahydro-2H-pyran-4-yl)methyl-d2)octahydrocyclopenta[c]pyrrol-5-amine] | 6 | 8.89 | –

Results, then the molecule that gave them:

Row | remaining activity at 30 µM [%] | pIC50 | Human M4 Emin (% ACh maximum at 30 μM) [%] | Structure (SMILES)
9 | 4 | 8.82 | – | [2H]C([2H])(C1CCOCC1)N1C[C@H]2C[C@H](Nc3nnc(-c4cnccc4C(F)(F)F)cc3C)C[C@H]2C1 [Compound 16, (3aR,5s,6aS)-N-(4-methyl-6-(4-(trifluoromethyl)pyridin-3-yl)pyridazin-3-yl)-2-((tetrahydro-2H-pyran-4-yl)methyl-d2)octahydrocyclopenta[c]pyrrol-5-amine]
10 | 3 | 8.26 | – | [2H]C([2H])([C@@H]1CCCOC1)N1C[C@H]2C[C@H](Nc3ccc(-c4cnccc4C(F)(F)F)nn3)C[C@H]2C1 [Compound 24, (3aR,5s,6aS)-2-(((S)-tetrahydro-2H-pyran-3-yl)methyl-d2)-N-(6-(4-(trifluoromethyl)pyridin-3-yl)pyridazin-3-yl)octahydrocyclopenta[c]pyrrol-5-amine]
11 | 6 | 7.46 | – | [2H]C([2H])([C@H]1CCCOC1)N1C[C@H]2C[C@H](Nc3ccc(-c4cnccc4C(F)(F)F)nn3)C[C@H]2C1 [Compound 25, (3aR,5s,6aS)-2-(((R)-tetrahydro-2H-pyran-3-yl)methyl-d2)-N-(6-(4-(trifluoromethyl)pyridin-3-yl)pyridazin-3-yl)octahydrocyclopenta[c]pyrrol-5-amine]
12 | 4 | 8.57 | – | [2H]C([2H])(C1CCCOCC1)N1C[C@H]2C[C@H](Nc3ccc(-c4cnccc4C(F)(F)F)nn3)C[C@H]2C1 (stereo partly drawn) [Compound 28, (3aR,5s,6aS)-2-(oxepan-4-ylmethyl-d2)-N-(6-(4-(trifluoromethyl)pyridin-3-yl)pyridazin-3-yl)octahydrocyclopenta[c]pyrrol-5-amine]
13 | 5 | 9.10 | – | [2H]C([2H])(CC1CCOCC1)N1C[C@H]2C[C@H](Nc3ccc(-c4cnccc4C(F)(F)F)nn3)C[C@H]2C1 [Compound 31, (3aR,5s,6aS)-2-(2-(tetrahydro-2H-pyran-4-yl)ethyl-1,1-d2)-N-(6-(4-(trifluoromethyl)pyridin-3-yl)pyridazin-3-yl)octahydrocyclopenta[c]pyrrol-5-amine]
14 | 14 | 7.62 | – | [2H]C([2H])(C1CC(C)(C)OC(C)(C)C1)N1C[C@H]2C[C@H](Nc3ccc(-c4cnccc4C(F)(F)F)nn3)C[C@H]2C1 [Compound 32, (3aR,5s,6aS)-2-((2,2,6,6-tetramethyltetrahydro-2H-pyran-4-yl)methyl-d2)-N-(6-(4-(trifluoromethyl)pyridin-3-yl)pyridazin-3-yl)octahydrocyclopenta[c]pyrrol-5-amine]
15 | – | 8.38 | 7 | [2H]C([2H])(C1CCOC(C)(C)C1)N1C[C@H]2C[C@H](Nc3ccc(-c4cnccc4C(F)(F)F)nn3)C[C@H]2C1 (stereo partly drawn) [Compound 33, (3aR,5s,6aS)-2-((2,2-dimethyltetrahydro-2H-pyran-4-yl)methyl-d2)-N-(6-(4-(trifluoromethyl)pyridin-3-yl)pyridazin-3-yl)octahydrocyclopenta[c]pyrrol-5-amine]
